Reference: patent US10487068B2, “Pyridazine derivatives as RORc modulators” (Genentech, Inc., priority 2015, dated 2019)

Each molecule was assayed against T1, RORc ligand binding domain (Homo sapiens, UniProt P51449) (assay: In Vitro RORc Ligand Binding Assay). Settings: RORc IC50, radioligand 25-[3H]hydroxycholesterol 6 nM; 0.6 ug/mL RORc receptor; 3 h at 25° C.
T1 sequence (P51449 269-508 limits assumed): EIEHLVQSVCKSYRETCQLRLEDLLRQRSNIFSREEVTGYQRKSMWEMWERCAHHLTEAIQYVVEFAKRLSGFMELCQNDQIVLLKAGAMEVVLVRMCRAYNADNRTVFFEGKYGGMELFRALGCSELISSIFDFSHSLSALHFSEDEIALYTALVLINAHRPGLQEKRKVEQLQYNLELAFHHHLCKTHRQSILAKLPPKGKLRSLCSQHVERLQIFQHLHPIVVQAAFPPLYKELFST
In the case of `CC(C)(O)CNS(=O)(=O)c1cccc([C@@]23CC[C@@H](c4cc(-c5c(F)cccc5F)nnc42)C3(C)C)n1` [Example 198, 6-((5R,8S)-3-(2,6-difluorophenyl)-9,9-dimethyl-5,6,7,8-tetrahydro-5,8-methanocinnolin-8-yl)-N-(2-hydroxy-2-methylpropyl)pyridine-2-sulfonamide], the IC50 is reported as 26.1 nM.
For `CC1(C)[C@H]2CC[C@]1(c1cccc(S(=O)(=O)NC3(CO)COC3)n1)c1nnc(-c3c(F)cccc3F)cc12` [Example 199, 6-((5R,8S)-3-(2,6-difluorophenyl)-9,9-dimethyl-5,6,7,8-tetrahydro-5,8-methanocinnolin-8-yl)-N-(3-(hydroxymethyl)oxetan-3-yl)pyridine-2-sulfonamide], the IC50 was 9.4 nM.
Work on `C[C@@H](O)CNS(=O)(=O)c1cccc([C@@]23CC[C@@H](c4cc(-c5c(F)cccc5F)nnc42)C3(C)C)n1` [Example 200, 6-((5R,8S)-3-(2,6-difluorophenyl)-9,9-dimethyl-5,6,7,8-tetrahydro-5,8-methanocinnolin-8-yl)-N-((R)-2-hydroxypropyl)pyridine-2-sulfonamide] yielded an IC50 of 11.7 nM.
Molecule `C[C@H](O)CNS(=O)(=O)c1cccc([C@@]23CC[C@@H](c4cc(-c5c(F)cccc5F)nnc42)C3(C)C)n1` [Example 201, 6-((5R,8S)-3-(2,6-difluorophenyl)-9,9-dimethyl-5,6,7,8-tetrahydro-5,8-methanocinnolin-8-yl)-N-((S)-2-hydroxypropyl)pyridine-2-sulfonamide] has an IC50 of 33.4 nM.
`CC1(C)[C@H]2CC[C@]1(c1cncc(-n3cc[nH]c3=O)n1)c1nnc(-c3c(F)cccc3F)cc12` [Example 202, 1-(6-((5R,8S)-3-(2,6-difluorophenyl)-9,9-dimethyl-5,6,7,8-tetrahydro-5,8-methanocinnolin-8-yl)pyrazin-2-yl)-1H-imidazol-2(3H)-one] gave an IC50 of 10.8 nM.
Work on `CC(C)(O)c1nnc(-c2cncc([C@@]34CC[C@@H](c5cc(-c6c(F)cccc6F)nnc53)C4(C)C)n2)[nH]1` [Example 203, 2-(5-(6-((5R,8S)-3-(2,6-difluorophenyl)-9,9-dimethyl-5,6,7,8-tetrahydro-5,8-methanocinnolin-8-yl)pyrazin-2-yl)-4H-1,2,4-triazol-3-yl)propan-2-ol] yielded an IC50 of 24.3 nM.
Molecule `CC1(C)[C@H]2CC[C@]1(c1cncc(NC(=O)NCCO)n1)c1nnc(-c3c(F)cccc3F)cc12` [Example 204, 1-(6-((5R,8S)-3-(2,6-difluorophenyl)-9,9-dimethyl-5,6,7,8-tetrahydro-5,8-methanocinnolin-8-yl)pyrazin-2-yl)-3-(2-hydroxyethyl)urea] has an IC50 of 74.6 nM.
Molecule `CC1(C)[C@H]2CC[C@]1(c1cncc(-c3cn[nH]c3)n1)c1nnc(-c3c(F)cccc3F)cc12` [Example 205] has an IC50 of 10.4 nM.
With `CC1(C)[C@H]2CC[C@]1(c1cncc(-c3cnc(CO)o3)n1)c1nnc(-c3c(F)cccc3F)cc12` [Example 206, (5-(6-((5R,8S)-3-(2,6-difluorophenyl)-9,9-dimethyl-5,6,7,8-tetrahydro-5,8-methanocinnolin-8-yl)pyrazin-2-yl)oxazol-2-yl)methanol] the IC50 was 6.7 nM.
`CC1(C)[C@H]2CC[C@]1(c1cccc(-c3cnc(CO)o3)n1)c1nnc(-c3c(F)cccc3F)cc12` [Example 207, (5-(6-((5R,8S)-3-(2,6-difluorophenyl)-9,9-dimethyl-5,6,7,8-tetrahydro-5,8-methanocinnolin-8-yl)pyridin-2-yl)oxazol-2-yl)methanol] gave an IC50 of 3.8 nM.
`Cc1cn(-c2nccc([C@@]34CC[C@@H](c5cc(-c6c(F)cccc6F)nnc53)C4(C)C)n2)cn1` [Example 208] was tested, and the IC50 was 3.6 nM.
`Cc1ncc(-c2cnc(C)c([C@@]34CC[C@@H](c5cc(-c6c(F)cccc6F)nnc53)C4(C)C)n2)o1` [Example 209, 5-(6-((5R,8S)-3-(2,6-difluorophenyl)-9,9-dimethyl-5,6,7,8-tetrahydro-5,8-methanocinnolin-8-yl)-5-methylpyrazin-2-yl)-2-methyloxazole] was tested, and the IC50 was 15.2 nM.
`CC1(C)[C@H]2CC[C@]1(c1cc(C#N)nc(C#N)c1)c1nnc(-c3c(F)cccc3F)cc12` [Example 210, 4-((5R,8S)-3-(2,6-difluorophenyl)-9,9-dimethyl-5,6,7,8-tetrahydro-5,8-methanocinnolin-8-yl)pyridine-2,6-dicarbonitrile] gave an IC50 of 114 nM.
Molecule `CC1(C)[C@H]2CC[C@]1(c1ccnc(-n3cccn3)n1)c1nnc(-c3c(F)cccc3F)cc12` [Example 211] has an IC50 of 8.8 nM.
With `Cc1ncn(-c2nccc([C@@]34CC[C@@H](c5cc(-c6c(F)cccc6F)nnc53)C4(C)C)n2)n1` [Example 212] the IC50 was 28.1 nM.
Work on `CC1(C)[C@H]2CC[C@]1(c1cccc(-c3ccn[nH]3)n1)c1nnc(-c3c(F)cccc3F)cc12` [Example 213] yielded an IC50 of 6.1 nM.
`CC(C)(O)c1nnc(-c2cccc([C@@]34CC[C@@H](c5cc(-c6c(F)cccc6F)nnc53)C4(C)C)n2)[nH]1` [Example 214, 2-(5-(6-((5R,8S)-3-(2,6-difluorophenyl)-9,9-dimethyl-5,6,7,8-tetrahydro-5,8-methanocinnolin-8-yl)pyridin-2-yl)-4H-1,2,4-triazol-3-yl)propan-2-ol] was tested, and the IC50 was 30.5 nM.
`CC1(C)[C@H]2CC[C@]1(c1ccnc(-n3cc(CCO)cn3)n1)c1nnc(-c3c(F)cccc3F)cc12` [Example 215] gave an IC50 of 28.1 nM.
`CC1(C)[C@H]2CC[C@]1(c1cccc(-n3cnnc3)n1)c1nnc(-c3c(F)cccc3F)cc12` [Example 216] gave an IC50 of 12.7 nM.
`CC1(C)[C@H]2CC[C@]1(c1cncc(F)c1)c1nnc(-c3c(F)cccc3F)cc12` [Example 217, (5R,8S)-3-(2,6-difluorophenyl)-8-(5-fluoropyridin-3-yl)-9,9-dimethyl-5,6,7,8-tetrahydro-5,8-methanocinnoline] was tested, and the IC50 was 7.4 nM.
Molecule `CC1(C)[C@H]2CC[C@]1(c1nc(C(=O)NCCO)ncc1F)c1nnc(-c3c(F)cccc3F)cc12` [Example 218] has an IC50 of 60.7 nM.
`CC1(C)[C@H]2CC[C@]1(c1ccnc(-n3cnc(CO)c3)n1)c1nnc(-c3c(F)cccc3F)cc12` [Example 219] gave an IC50 of 6.7 nM.
Work on `CC1(C)[C@H]2CC[C@]1(c1ccnc(-n3cnc(C#N)n3)n1)c1nnc(-c3c(F)cccc3F)cc12` [Example 220] yielded an IC50 of 25.3 nM.
With `C[C@@H](O)c1nnc(-c2cccc([C@@]34CC[C@@H](c5cc(-c6c(F)cccc6F)nnc53)C4(C)C)n2)[nH]1` [Example 221, (R)-1-(5-(6-((5R,8S)-3-(2,6-difluorophenyl)-9,9-dimethyl-5,6,7,8-tetrahydro-5,8-methanocinnolin-8-yl)pyridin-2-yl)-4H-1,2,4-triazol-3-yl)ethanol] the IC50 was 23.3 nM.
Work on `C[C@H](O)c1nnc(-c2cccc([C@@]34CC[C@@H](c5cc(-c6c(F)cccc6F)nnc53)C4(C)C)n2)[nH]1` [Example 222, (S)-1-(5-(6-((5R,8S)-3-(2,6-difluorophenyl)-9,9-dimethyl-5,6,7,8-tetrahydro-5,8-methanocinnolin-8-yl)pyridin-2-yl)-4H-1,2,4-triazol-3-yl)ethanol] yielded an IC50 of 11 nM.
Molecule `Cc1nnc(-c2ccnc([C@@]34CC[C@@H](c5cc(-c6c(F)cccc6F)nnc53)C4(C)C)c2)[nH]1` [Example 223] has an IC50 of 62.3 nM.
With `C[C@H](O)c1nnc(-c2cncc([C@@]34CC[C@@H](c5cc(-c6c(F)cccc6F)nnc53)C4(C)C)n2)[nH]1` [Example 224, (S)-1-(5-(6-((5R,8S)-3-(2,6-difluorophenyl)-9,9-dimethyl-5,6,7,8-tetrahydro-5,8-methanocinnolin-8-yl)pyrazin-2-yl)-4H-1,2,4-triazol-3-yl)ethanol] the IC50 was 12.4 nM.
`C[C@@H](O)c1nnc(-c2cncc([C@@]34CC[C@@H](c5cc(-c6c(F)cccc6F)nnc53)C4(C)C)n2)[nH]1` [Example 225, (R)-1-(5-(6-((5R,8S)-3-(2,6-difluorophenyl)-9,9-dimethyl-5,6,7,8-tetrahydro-5,8-methanocinnolin-8-yl)pyrazin-2-yl)-4H-1,2,4-triazol-3-yl)ethanol] was tested, and the IC50 was 21 nM.
`CC1(C)[C@H]2CC[C@]1(c1cc(=O)[nH]cn1)c1nnc(-c3c(F)cccc3F)cc12` [Example 226, 6-((5R,8S)-3-(2,6-difluorophenyl)-9,9-dimethyl-5,6,7,8-tetrahydro-5,8-methanocinnolin-8-yl)pyrimidin-4(3H)-one] showed an IC50 of 363 nM.
`Cc1nc(C#N)ncc1[C@@]12CC[C@@H](c3cc(-c4c(F)cccc4F)nnc31)C2(C)C` [Example 227, 5-((5R,8S)-3-(2,6-difluorophenyl)-9,9-dimethyl-5,6,7,8-tetrahydro-5,8-methanocinnolin-8-yl)-4-methylpyrimidine-2-carbonitrile] showed an IC50 of 717 nM.
In the case of `Cc1cc([C@@]23CC[C@@H](c4cc(-c5c(F)cccc5F)nnc42)C3(C)C)nc(C#N)n1` [Example 228], the IC50 is reported as 15.3 nM.
With `CC1(C)[C@H]2CC[C@]1(c1cccc(-c3cn[nH]c3)n1)c1nnc(-c3c(F)cccc3F)cc12` [Example 229] the IC50 was 3 nM.
`CC1(C)[C@H]2CC[C@]1(c1nc(C(=O)NCCO)ncc1Cl)c1nnc(-c3c(F)cccc3F)cc12` [Example 230] was tested, and the IC50 was 55.2 nM.
`CC1(C)[C@H]2CC[C@]1(c1cncc(-n3ccnc3)n1)c1nnc(-c3c(F)cccc3F)cc12` [Example 231] was tested, and the IC50 was 6.3 nM.
`CC1(C)[C@H]2CC[C@]1(c1ccnc(-n3cnc(C(N)=O)n3)n1)c1nnc(-c3c(F)cccc3F)cc12` [Example 232] gave an IC50 of 27.9 nM.
`CC1(C)[C@H]2CC[C@]1(c1nc(C#N)ncc1Cl)c1nnc(-c3c(F)cccc3F)cc12` [Example 233] was tested, and the IC50 was 13.8 nM.
`CC(C)(O)c1nnc(-c2ncc(F)c([C@@]34CC[C@@H](c5cc(-c6c(F)cccc6F)nnc53)C4(C)C)n2)[nH]1` [Example 234] showed an IC50 of 36.6 nM.
For `CC1(C)[C@H]2CC[C@]1(c1cc(-c3cnc(CO)o3)ccn1)c1nnc(-c3c(F)cccc3F)cc12` [Example 235], the IC50 was 9.4 nM.
With `CC1(C)[C@H]2CC[C@]1(c1cncc(-n3cnc(CO)c3)n1)c1nnc(-c3c(F)cccc3F)cc12` [Example 236] the IC50 was 5.8 nM.
